In PMC10283505, “CVM-1118 (foslinanib), a 2-phenyl-4-quinolone derivative, promotes apoptosis and inhibits vasculogenic mimicry via targeting TRAP1” (Pathology and Oncology Research, 2023):

Experiments:
HCT-116 = assay: Orthotopic HCT-116 mouse xenograft study, tumor volume; assay type: in vivo, BALB/c nude mice; conditions: for tumor volume: day 43, vehicle 1,139 ± 580
Experimental: This animal study was contracted to CrownBio International R&D Center (Beijing, China) and was conducted under the approval of the Animal Ethics Committee at CrownBio in compliance with institutional and national guidelines. Seven-to eight-week-old female BALB/c nude mice were obtained from HFK Bio-Technology Co., Ltd. (Beijing, China). HCT-116 cells (2 × 10^6) were suspended in 20 μL PBS and then injected into the cecal wall. Treatment began on day 14 after cell inoculation when tumor reached ∼100 mm^3 measured in a satellite group of three mice. Treatment groups include vehicle control [PEG400:pH 10 carbonate buffer (40:60)], CVM-1118 at 20, 50, and 100 mg/kg given orally daily for 28 days, and CVM-1118 at 20 mg/kg given as intravenous injection once every 2 days for 7 times. Tumor volumes were measured at the end of in-life study on day 43. At the end of in vivo study, tumor tissues from selected groups were excised, collected, and subjected to standard immunohistochemical procedures to visualize the effect of CVM-1118 on VM network formation. Briefly, rabbit anti-human CD31 antibody (Abcam) was used as the primary Ab for the staining and the number of channels with CD31+/red blood cell (RBC)+, or CD31−/RBC+ were counted based on five light fields (×200) on the whole section of each sample in each group under microscope. Analysis of difference in tumor volume for drug-treated group against vehicle control group was conducted using one-way ANOVA followed by least significant difference (LSD) test (equal variance tested and confirmed by Brown-Forsythe test). Statistical analysis for VM formation was evaluated using Mann-Whitney test. All data were analyzed using GraphPad Prism 9.5.

[1] = test system: HT-29 colorectal adenocarcinoma cells; assay: Flow cytometry cell cycle analysis (PI); assay type: cell-based, human; conditions: 48 h
Experimental: This assay was conducted by ProQinase GmbH (Freiburg, Germany). HT-29 colorectal adenocarcinoma cells were seeded at 150,000 cells/well in 6-well cell culture plates in 5 mL complete medium and incubated at 37°C overnight. On the day of the assay, CVM-1118 at various concentrations or 0.1% DMSO were added to the cells. After 48 h incubation, cells were harvested including the supernatant, fixed in 80% methanol, and stored at −20°C overnight. The next day, cells were rehydrated in PBS for 30 min and treated with RNAse A (100 μg/mL) and propidium iodide (PI) (25 μg/mL). Cell cycle distribution was analyzed by flow cytometry (FACSCalibur, BD Biosciences), assessing approximately 10,000 events. Detection of DNA intercalated with PI was done by fluorescence detector FL3, in which amplification was set in such a manner that the first amplitude peak of the FL3 signal (FL3-A) in untreated cells (corresponding to the G1 cell population) was found at approximately 200 units. For analysis, events were plotted as histogram. The peak at ∼200 units was defined as cells in G1, events below the G1-peak were considered apoptotic cells (sub-G1), and events at ∼400 units as G2/M cells. All signals in between 200 and 400 units were defined as cells in S-Phase, and those beyond 400 units as endoreduplicated cells (endoR).

RPMI-8226 = assay: NCI 60 cytotoxicity screening; assay type: cell-based; conditions: Homo sapiens; RPMI-8226, Leukemia
HL-60(TB) = assay: NCI 60 cytotoxicity screening; assay type: cell-based; conditions: Homo sapiens, Leukemia
TGFβig-h3 = molecular target: T1, TGFβig-h3 (Homo sapiens, UniProt Q15582); assay: Surface plasmon resonance (Biacore); assay type: binding; conditions: TGFβig-h3, SPR
T1 sequence (Q15582 24-683): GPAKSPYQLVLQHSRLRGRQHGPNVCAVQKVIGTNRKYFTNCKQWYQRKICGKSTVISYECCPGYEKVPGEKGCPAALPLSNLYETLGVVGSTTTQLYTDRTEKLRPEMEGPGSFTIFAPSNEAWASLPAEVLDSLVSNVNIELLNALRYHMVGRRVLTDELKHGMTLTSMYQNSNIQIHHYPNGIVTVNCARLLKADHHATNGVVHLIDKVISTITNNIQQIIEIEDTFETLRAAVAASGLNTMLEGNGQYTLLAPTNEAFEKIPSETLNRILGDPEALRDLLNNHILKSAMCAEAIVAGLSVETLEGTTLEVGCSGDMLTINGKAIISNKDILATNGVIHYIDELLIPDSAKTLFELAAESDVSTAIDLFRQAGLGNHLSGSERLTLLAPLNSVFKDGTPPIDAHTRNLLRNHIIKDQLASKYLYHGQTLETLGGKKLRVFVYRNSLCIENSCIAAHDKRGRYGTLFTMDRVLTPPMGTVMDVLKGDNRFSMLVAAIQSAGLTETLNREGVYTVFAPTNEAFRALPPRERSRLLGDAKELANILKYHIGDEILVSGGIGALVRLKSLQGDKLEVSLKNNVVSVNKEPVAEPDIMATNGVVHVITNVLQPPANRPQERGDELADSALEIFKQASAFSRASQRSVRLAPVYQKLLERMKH

HIF-1α = assay: Western blot of HIF-1α protein (hypoxia); assay type: cell-based, human; conditions: hypoxia 72 h
Experimental: Changes in the expression HIF-1α protein in SK-MEL28, SK-OV3, MDA-MB-231 and COLO205 cells in response to treatment with CVM-1125 was performed as follows: 5.0 × 10^6 cells were grown under hypoxic conditions (as previously described) for 72 h, with or without 100 nM CVM-1125 in T175 culture flasks, then sub-confluent cultures harvested and whole cell protein lysates prepared and analyzed by Western blot (as above). Thirty micrograms of protein was loaded per lane of the gel for each sample followed by detection of HIF-1α protein on the final blot using a polyclonal rabbit anti- HIF-1α antibody (#3716; Cell Signaling Technologies), secondary antibody plus HRP (NA934V), then ECL. The blots were then stripped and re-probed for β-actin protein as a control (as above).

SMILES: COc1ccc2[nH]c(-c3cccc(F)c3)cc(=O)c2c1OP(=O)(O)O [CVM-1118]
- tumor volume (HCT-116; 20 mg/kg i.v. once every 2 days for 7 times): 670 ± 447 mm^3
- animals found dead prior to the termination of the study (HCT-116; 20 mg/kg i.v. treatment group): two mice
- tumor volume (HCT-116; 20 mg/kg orally daily for 28 days): 1,591 ± 747 mm^3
- animals found dead prior to the termination of the study (HCT-116; 50 mg/kg oral treatment group): One mouse
- tumor volume (HCT-116; 50 mg/kg orally daily for 28 days): 722 ± 595 mm^3
- tumor volume (HCT-116; 100 mg/kg orally daily for 28 days): 475 ± 415 mm^3
- Cell cycle profile, EndoR ([1]; HT-29, 10 nM): 1.28%
- Cell cycle profile, G1 phase ([1]; HT-29, 10 nM): 49.34%
- Cell cycle profile, G2/M phase ([1]; HT-29, 10 nM): 25.66%
- Cell cycle profile, S phase ([1]; HT-29, 10 nM): 23.02%
- Cell cycle profile, Sub-G1 ([1]; HT-29, 10 nM): 1.24%
- Cell cycle profile, EndoR ([1]; HT-29, 30 nM): 1.23%
- Cell cycle profile, G1 phase ([1]; HT-29, 30 nM): 50.63%
- Cell cycle profile, G2/M phase ([1]; HT-29, 30 nM): 23.71%
- Cell cycle profile, S phase ([1]; HT-29, 30 nM): 23.30%
- Cell cycle profile, Sub-G1 ([1]; HT-29, 30 nM): 1.44%
- Cell cycle profile, EndoR ([1]; HT-29, 100 nM): 2.84%
- Cell cycle profile, G1 phase ([1]; HT-29, 100 nM): 16.27%
- Cell cycle profile, G2/M phase ([1]; HT-29, 100 nM): 43.42%
- Cell cycle profile, S phase ([1]; HT-29, 100 nM): 10.90%
- Cell cycle profile, Sub-G1 ([1]; HT-29, 100 nM): 26.96%
- Cell cycle profile, EndoR ([1]; HT-29, 300 nM): 2.45%
- Cell cycle profile, G1 phase ([1]; HT-29, 300 nM): 1.58%
- Cell cycle profile, G2/M phase ([1]; HT-29, 300 nM): 50.77%
- Cell cycle profile, S phase ([1]; HT-29, 300 nM): 23.63%
- Cell cycle profile, Sub-G1 ([1]; HT-29, 300 nM): 22.46%

SMILES: COc1ccc2[nH]c(-c3cccc(F)c3)cc(=O)c2c1O [CVM-1125]
- GI50 (RPMI-8226): 33.1 nM
- GI50 (HL-60(TB)): 22.2 nM
- Association (ka) (TGFβig-h3): No interaction
- Dissociation (kd) (TGFβig-h3): No interaction
- KD (kd/ka) (TGFβig-h3): No interaction
- reduction of HIF-1α protein levels (HIF-1α; COLO205, 100 nM): 9%
- reduction of HIF-1α protein levels (HIF-1α; MDA-MB-231, 100 nM): 17%
- reduction of HIF-1α protein levels (HIF-1α; SK-MEL28, 100 nM): 28%
- reduction of HIF-1α protein levels (HIF-1α; SKOV3, 100 nM): 25%
